From ChEMBL document CHEMBL1201862, “PubChem BioAssay data set” (2004)
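1) Cells in 96-well plates. 2) Compound, 48 h, 5 concentrations. 3) Linear interpolation between surrounding doses. 4) Unreached endpoint = highest concentration. GI50 is the concentration that inhibits growth by half.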 Calls of active or inactive are those of the source. No stated cut-off is given here; in the data, active = GI50 up to about 1.1 µM and inactive = higher.

Legend:
Assay in all cases: NCI anticancer screen, dose series, 48 h
OVCAR-8 = system: OVCAR-8
HCT-116 = system: HCT-116
KM12 = system: KM12
OVCAR-3 = system: OVCAR-3
HT-29 = system: HT-29
NCI-H460 = system: NCI-H460
LOX IMVI = system: LOX IMVI
SF-268 = system: SF-268
UO-31 = system: UO-31
COLO 205 = system: COLO 205
OVCAR-4 = system: OVCAR-4
HOP-62 = system: HOP-62
786-0 = system: 786-0
MOLT-4 = system: MOLT-4
A549 = system: A549
EKVX = system: EKVX
ACHN = system: ACHN

Measured: GI50

Cc1ccc(NC(=O)CC(=O)n2nc(C)c(/N=N/c3ccccc3C(=O)O)c2C)cc1
inactive: OVCAR-8 > 100 µM | HCT-116 > 100 µM | KM12 > 100 µM | OVCAR-3 > 100 µM | HT-29 > 100 µM | NCI-H460 > 100 µM | LOX IMVI > 100 µM | SF-268 > 100 µM | UO-31 > 100 µM | COLO 205 > 100 µM | OVCAR-4 > 100 µM | HOP-62 > 100 µM | 786-0 > 100 µM | MOLT-4 > 100 µM | A549 > 100 µM | EKVX > 100 µM

CCOC(=O)NC(=O)c1cn(CCN2CCN(C(=O)NCCCCCCNC(=O)N3CCN(CCn4cc(C(=O)NC(=O)OCC)c(=O)n(CCN(CC)CC)c4=O)CC3)CC2)c(=O)n(CCC(CC)CC)c1=O
inactive: OVCAR-8 > 100 µM | HCT-116 > 100 µM | ACHN > 100 µM | KM12 > 100 µM | OVCAR-3 > 100 µM | HT-29 > 100 µM | NCI-H460 > 100 µM | LOX IMVI > 100 µM | SF-268 > 100 µM | UO-31 > 100 µM | COLO 205 > 100 µM | OVCAR-4 > 100 µM | HOP-62 > 100 µM | 786-0 > 100 µM | A549 > 100 µM | EKVX > 100 µM

O=[N+]([O-])c1cc(Cl)ccc1OCc1ccccc1
inactive: OVCAR-8 > 100 µM | HCT-116 55.6 µM | ACHN 51.4 µM | KM12 > 100 µM | OVCAR-3 33 µM | HT-29 29.6 µM | NCI-H460 55.8 µM | LOX IMVI 40.8 µM | SF-268 > 100 µM | COLO 205 > 100 µM | OVCAR-4 > 100 µM | HOP-62 52 µM | 786-0 59 µM | MOLT-4 27.9 µM | A549 26.2 µM | EKVX 27.2 µM

CCCCCCCCC(C)CCCCCCCCC(=O)OCC(COP(=O)([O-])OCC[N+](C)(C)C)OC(=O)CCCCCCCCC(C)CCCCCCCC (stereo not given)
inactive: OVCAR-8 > 100 µM | HCT-116 > 100 µM | ACHN > 100 µM | KM12 > 100 µM | OVCAR-3 > 100 µM | HT-29 > 100 µM | NCI-H460 > 100 µM | LOX IMVI > 100 µM | SF-268 > 100 µM | UO-31 > 100 µM | COLO 205 > 100 µM | OVCAR-4 > 100 µM | HOP-62 > 100 µM | 786-0 > 100 µM | MOLT-4 > 100 µM | A549 > 100 µM | EKVX > 100 µM

O=C1C2C3C=C4c5ccccc5N(c5ccccc5)C4(C2C(=O)N1c1ccc([N+](=O)[O-])cc1)[C@H]1C(=O)N(c2ccc([N+](=O)[O-])cc2)C(=O)[C@@H]31 (stereo not given in full)
inactive: OVCAR-8 > 100 µM | HCT-116 > 100 µM | ACHN > 100 µM | KM12 > 100 µM | OVCAR-3 > 100 µM | HT-29 > 100 µM | NCI-H460 > 100 µM | LOX IMVI > 100 µM | SF-268 > 100 µM | UO-31 > 100 µM | COLO 205 > 100 µM | OVCAR-4 > 100 µM | HOP-62 > 100 µM | 786-0 > 100 µM | MOLT-4 > 100 µM | A549 > 100 µM | EKVX > 100 µM

S=C(Nc1ccccc1)N(/N=C/C=C/c1ccccc1)c1nnc(-c2ccccc2)c(-c2ccccc2)n1
inactive: OVCAR-8 > 100 µM | ACHN 60.4 µM | KM12 82.4 µM | OVCAR-3 38.6 µM | HT-29 99.1 µM | NCI-H460 67.5 µM | LOX IMVI 52.1 µM | SF-268 30.5 µM | UO-31 24.7 µM | COLO 205 > 100 µM | OVCAR-4 30.5 µM | HOP-62 78.2 µM | 786-0 > 100 µM | MOLT-4 32.3 µM | A549 38.6 µM | EKVX 45.4 µM

CC(=O)c1cccc(NC(=O)C(=O)C(C2OC(=O)c3ccccc32)[N+](=O)[O-])c1 (stereo not given)
inactive: HCT-116 > 100 µM | ACHN > 100 µM | KM12 > 100 µM | OVCAR-3 > 100 µM | HT-29 > 100 µM | NCI-H460 > 100 µM | LOX IMVI > 100 µM | SF-268 > 100 µM | UO-31 60.1 µM | COLO 205 > 100 µM | OVCAR-4 > 100 µM | HOP-62 > 100 µM | 786-0 > 100 µM | MOLT-4 > 100 µM | A549 > 100 µM | EKVX > 100 µM

Cc1ccc2[nH]c(=O)c(C(C#N)c3ccccc3)nc2c1 (stereo not given)
inactive: HCT-116 33.7 µM | ACHN 50.9 µM | KM12 32 µM | OVCAR-3 23.6 µM | HT-29 32.8 µM | NCI-H460 72.3 µM | LOX IMVI 34.4 µM | SF-268 32.6 µM | UO-31 27.9 µM | COLO 205 27 µM | OVCAR-4 30.1 µM | HOP-62 > 100 µM | 786-0 41.8 µM | MOLT-4 20.9 µM | A549 35.5 µM | EKVX 30.5 µM

O=C(CSc1nnc(-c2ccc(/N=C\c3ccc(Cl)cc3)cc2)o1)Nc1cccc(Cl)c1
inactive: OVCAR-8 > 100 µM | HCT-116 > 100 µM | ACHN > 100 µM | KM12 > 100 µM | HT-29 > 100 µM | NCI-H460 > 100 µM | LOX IMVI > 100 µM | SF-268 > 100 µM | UO-31 > 100 µM | COLO 205 > 100 µM | OVCAR-4 > 100 µM | HOP-62 > 100 µM | 786-0 > 100 µM | MOLT-4 > 100 µM | A549 > 100 µM | EKVX > 100 µM

N#Cc1c(N)oc2cc3c(C#N)c(N)oc3cc12
inactive: OVCAR-8 > 100 µM | ACHN > 100 µM | KM12 > 100 µM | OVCAR-3 > 100 µM | HT-29 > 100 µM | NCI-H460 > 100 µM | LOX IMVI > 100 µM | SF-268 > 100 µM | UO-31 > 100 µM | COLO 205 > 100 µM | OVCAR-4 > 100 µM | HOP-62 > 100 µM | 786-0 > 100 µM | MOLT-4 > 100 µM | A549 > 100 µM | EKVX > 100 µM

O=c1c2cc(-c3ccccc3)sc2nc2sc(-c3ccccc3)nn12
inactive: OVCAR-8 > 100 µM | HCT-116 > 100 µM | KM12 > 100 µM | OVCAR-3 > 100 µM | HT-29 > 100 µM | NCI-H460 > 100 µM | LOX IMVI > 100 µM | SF-268 > 100 µM | UO-31 > 100 µM | COLO 205 > 100 µM | OVCAR-4 > 100 µM | HOP-62 85.3 µM | 786-0 > 100 µM | MOLT-4 > 100 µM | A549 > 100 µM | EKVX > 100 µM

Cc1ccccc1N1C(=O)/C(=C/c2ccc(N(CCC#N)CCC#N)cc2)N=C1c1cc([N+](=O)[O-])ccc1Cl
inactive: ACHN > 100 µM | KM12 > 100 µM | OVCAR-3 59.3 µM | HT-29 > 100 µM | NCI-H460 > 100 µM | SF-268 > 100 µM | UO-31 > 100 µM | COLO 205 18.8 µM | OVCAR-4 > 100 µM | HOP-62 25.6 µM | 786-0 84.5 µM | MOLT-4 25.5 µM
